Test [1] deals with IFN (interferon-gamma). The test can be described thus: PHA-stimulated peripheral blood lymphocyte cytokine release: IFN. The following applies: Homo sapiens, 48 h, read-out: IFN % inh. Format: cell-based. From the text:
(§1) The ability of various amines to affect the inflammatory responses was illustrated by its ability to reduce the production of cytokines by human lymphocytes stimulated with the T-cell receptor (TCR) activating agent phytohaemagglutinin (PHA) in the following assay.
(§2) Human leukocytes were collected from a healthy adult […] via leukopheresis, and adjusted to a density Of 1×10^6 cells/mL in serum free lymphocyte growth medium (ExVivo-15, Biowhittaker, Walkersville, Md.). PBLs were stimulated with 10 μg/mL PHA in the presence or absence of test samples following published methods (Hamamoto Y., et al. Exp Dermatol 2:231-235, 1993). The following compounds were evaluated N,N,N′,N′-Tetrakis(2-hydroxypropyl)ethylenediamine (THPED, available from BASF under the tradename “Quadrol” or “Neutrol”), N,N,N,N-Tetramethylethylenediamine (TEMED, available from Pfaltz & Bauer Chemicals (Waterbury, Conn.)), and Diethylenetriamine (available from Sigma-Aldrich) Following a 48 hour incubation at 37° C. with 5% CO2, the supernatant was removed and evaluated for cytokine content using commercially available multiplex cytokine detection kit.

The subject of test [2] is TNF (tissue necrosis factor-alpha). The test can be described thus: PHA-stimulated peripheral blood lymphocyte cytokine release: TNF. The class given is cell-based. The settings on record: Homo sapiens, 48 h, read-out: TNF % inh.
From the text: as §1, §2

The test system of test [3] is macrophages. The settings on record: Bhide M V et al., Immunopharmacol. 1985; cited from earlier work.
Test [4] deals with GM-CSF (granulocyte macrophage stimulating factor). The test can be described thus: PHA-stimulated peripheral blood lymphocyte cytokine release: GM-CSF. The class given is cell-based. The following applies: Homo sapiens, 48 h, read-out: GMCSF % inh.
From the text: as §1, §2

The subject of test [5] is tyrosinase. Kind of test: Tyrosinase activity in lysates of treated B16 cells (DOPA, absorbance 490 nm). The class given is cell-based, murine. The following applies: pH 7.2, B16 cells 48 hours, activity at 3-hours, normalized for total protein. As to the method:
THPED was also tested for its ability to induce tyrosinase activity in B16 cells by spectroscopic measuring of the final product, melanin. B16 cells were treated with THPED at different concentrations at pH 7.2 for 48 hours and cells were then lysed in 250 μl of PBS containing 1% Triton X-100 (Sigma, St. Louis, Mo.). The lysates were collected and centrifuged at 14,000 rpm for 5 minutes at 4° C. to pellet any insoluble material. Lysates (100 μl) were transferred to a 96 well assay plate (Corning Costar, San Diego, Calif.) and mixed with 100 μl of 0.1% (w/v) DOPA in PBS. The absorbance at 490 nm was then monitored from 0 to 12 hours using a VersaMax Plate Spectrophotometer (Molecular Devices, Sunnyvale, Calif.) and SoftMax Pro analytical software (Molecular Devices, Sunnyvale, Calif.). The tyrosinase activities were normalized for total protein using the BioRad Dc Protein Assay (Bio Rad, Hercules, Calif.).

Regarding `CC(O)CN(CCN(CC(C)O)CC(C)O)CC(C)O` (stereo not shown) [THPED, N,N,N′,N′-Tetrakis(2-hydroxypropyl)ethylenediamine], the figures for the inhibition at 10 µg/mL in test [1], in test [2] and in test [4] were 18.1%, 13.3% and 10.3%, respectively. For the same compound, the results for the inhibition at 100 µg/mL in test [1], in test [2] and in test [4] were 37.9%, 46.1% and 15.8%, respectively. The “effect on macrophages in culture” value in test [3] was “increased macrophage activation”. Moreover, the “% tyrosinase activity relative to untreated control” value was 104.15% in test [5] (0.01%), 167.39% in test [5] (0.025%) and 201.90% in test [5] (0.05%).
